doi:10.1101/2020.12.13.873687v1 (biorxiv, 2020)

Each compound was assayed against human amylin (islet amyloid polypeptide, IAPP) (Homo sapiens, UniProt P10997) (assay: thioflavin T fluorescence amyloid aggregation inhibition).
Assay type: biochemical

Chain of human amylin (islet amyloid polypeptide, IAPP) (P10997 34-70): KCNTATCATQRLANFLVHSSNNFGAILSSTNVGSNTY

Compared with `O=C(O)/C=C/c1ccc(O)c(O)c1` [caffeic acid], `O=C(O)[C@H](O)Cc1ccc(O)c(O)c1` [salvianic acid A] is 12-fold higher in IC50: 7.2 µM for the first, 90 µM for the second. The first is the more potent here.

First: O=C(O[C@@H]1Cc2c(O)cc(O)cc2O[C@@H]1c1cc(O)c(O)c(O)c1)c1cc(O)c(O)c(O)c1 [Epigallocatechin gallate, reference compound]
Second: O=C(/C=C/c1ccc(O)c(O)c1)O[C@H](Cc1ccc(O)c(O)c1)C(=O)O [rosmarinic acid]
The IC50 of the first is higher: roughly 1 µM for the first, 0.2 to 0.3 µM for the second. The second is the more potent here.
